Results on one molecule are retold here after article PMC8750527 (Cancers, 2021).

Data set [1] can be described thus: LC/MS measurement of axitinib in rat cerebellum. In kind it is in vivo. As to conditions: after 28 days of 50 mg/kg/day oral gavage. An excerpt:
The experiments were approved by Comité National Institutionnel d’Ethique pour l’Animal de Laboratoire (France). The rats were bled and the brains were recovered and flash-frozen at the end of the experiment.

The next data set relates to C8-D1A astrocytes. Description: Cell viability, propidium iodine incorporation, C8-D1A. As to conditions: 48 h; axitinib, cabozantinib, sunitinib 5 µM, etoposide 1 µM. The format is cell-based, murine. The procedure:
(§1) Cell viability assays were conducted using a propidium iodine incorporation technique with an ADAM-sHIT automated cell counter (NanoEnTek, Gyeonggi-do, Korea) according to the manufacturer’s protocol.

The test system of data set [2] is subcutaneous HD-MB03 tumors. Description: Subcutaneous HD-MB03 xenografts. The format is in vivo, mouse. As to conditions: oral, thrice a week. The procedure:
For subcutaneous xenograft experiments, tumor cells expressing the luciferase (350,000 HDMB-Luc cells and 1.10^6 DAOY-Luc cells) were resuspended in 200 µL of 5 µg/mL Matrigel (Corning Inc., Corning, NY, USA) and injected subcutaneously in the flank of 5-week-old Rj:NMRI-Foxn1 nude (nu/nu) female mice (Janvier Labs, Le Genest-Saint-Isle, France). Saline solution (NaCl 0.9M; 100 µL) containing 30 mg/mL D-Luciferin (Perkin Elmer, Wellesley, MA, USA) was injected intraperitoneally in the animals and the bioluminescence was quantified using an In Vivo Imaging System (Perkin Elmer, Wellesley, MA, USA) according to the manufacturer’s instructions. Tumor volume (V = L × l2 × 0.52) was determined with a caliper and the endpoint was determined as a tumor volume of 1000 mm^3. […] The mice were sacrificed when the tumor reached 1000 mm^3. […] No statistical methods were used to predetermine the sample size of the experiments. Animal facility availability and cost were used to determine sample sizes. Two independent cohorts of five mice per group were used for the tumor growth experiment with HD-MB03 cells and one cohort of five mice per group was used for the experiment with DAOY cells. Animal experiments were carried out in strict accordance with the recommendations in the Guide for the Care and Use of Laboratory Animals. Our experiments were approved by Direction de l’Action Sanitaire et Sociale of the Principality of Monaco and the ethics committee of Centre Scientifique de Monaco.
The growth rate of the tumors generated with HD-MB03 cells was determined using a linear regression method applied to the growth curves between the sizes of 400 mm^3 up to the endpoint using Prism 5 (Graphpad Software Inc., San Diego, CA, USA).
(§2) Tumor samples were recovered from the animals and embedded in the OCT compound according to the manufacturer’s protocol (Thermo Fisher Scientific Inc., Waltham, MA, USA). After that, 5 µm thin sections were prepared with a cryostat (Leica Microsystems, Wetzlar, Germany). Incubation was carried out with the following antibodies diluted at 1:1000 in TBS supplemented with 1% horse serum and 1% BSA for 20 min at room temperature: anti-Ki67 (cat. number ab16667, Abcam, Cambridge, UK), anti-CD31 (cat. number 550274, BD Biosciences, Frankton Lake, NJ, USA) or anti-αSMA (cat. number A2547, Merck Millipore, Burlington, MA, USA). The preparations were then washed with TBS–0.025% Triton, incubated with anti-rabbit Alexa488 and anti-mouse Alex-555-coupled secondary antibodies (Cell Signaling Technology, Danvers, MA, USA), washed with TBS–0.025% Triton, and the nuclei were counterstained with Hoechst33342 (Thermo Fisher Scientific, Waltham, MA, USA). Fluorescence images of the cells were taken with a DMI400 inverted microscope equipped with a 40× objective (Leica Microsystemes, Nanterre, France) and a Zyla 5.5 camera (Andor Technologies, Belfast, UK) powered by the Micromanager software. At least one cross-section of nonoverlapping images of each tumor was acquired. All the images were then quantified with the CellProfiler 3.0 software.

In data set [3] the test system is HD-MB03 intracranial tumors. As for the experimental part:
HD-MB03-Luc spheroids were stereotaxically implanted into the brains of 9-week-old Rj:NMRI-Foxn1 nude (nu/nu) female mice (Janvier Labs, Le Genest-Saint-Isle, France). Briefly, MB spheroids were generated with 2500 cells grown for 48 h in ultralow-adhesion spheroid 96-well plates (Corning, Corning, NY, USA) and three spheroids per mouse were implanted into the left cerebellar hemisphere (2 mm posterior, 1.5 mm left of the lambda point and 2.5 mm deep) using a Hamilton syringe fitted with a needle (Hamilton, Bonaduz, Switzerland) and following the procedure already described. […] Oral gavage with a vehicle solution was used as the control. Mouse survival was based on the presence of neuropathological symptoms including gait defects and a loss of weight over 10% as endpoints. A minimum of five mice per group was chosen to yield sufficient statistical power (p < 0.05, one-way ANOVA). These experiments were carried out in strict accordance with the recommendations in the Guide for the Care and Use of Laboratory Animals. Our experiments were approved by Direction de l’Action Sanitaire et Sociale of the Principality of Monaco and the ethics committee of Centre Scientifique de Monaco.
as §2

The next data set concerns HDF. Description: Cumulative population doubling (CPD), HDF. In kind it is cell-based, human. As to conditions: transient treatment for 48 h, 5 µM. The procedure:
Cumulative population doubling (CPD) was assessed as previously described. Briefly, depending on the cell line, a variable number of cells corresponding to about 30% confluency were seeded in triplicate in 60 mm diameter Petri dishes. […] The cells were harvested when the confluency reached about 90%, counted and plated again at a dilution of 1/20. CPD was calculated as previously described.

Another data set deals with MB cells. Description: Cell viability, propidium iodine incorporation, MB cells. In kind it is cell-based, human. As to conditions: 48 h, 5 µM. The procedure: as §1
Data set [4] concerns group 3 (D283, D458 and HD-MB03) and putative Shh group (DAOY) MB cell lines. Description: MTT assay, mean IC50 over group 3 and Shh MB cell lines. The format is cell-based. As to conditions: Homo sapiens. As for the experimental part:
HDF (3000 cells), C8-D1A (5000 cells), D458 (5000 cells), DAOY (2000 cells), HD-MB03 (10,000 cells) and CHLA-01-Med (10,000 cells) were seeded at an approximate confluency of 50% in 96-well plates (Corning Inc., Corning, NY, USA) in 100 µL medium per well. A range from 50 nM to 150 µM of every drug was tested. The effects of the antiangiogenic compounds were measured using a 3-[4,5-dimethylthiazol-2yl]-diphenyltetrazolium bromide (MTT) colorimetric assay (Sigma, Lyon, France) according to the manufacturer’s instructions. When applicable, IC50 was calculated using the nonlinear regression method of the Prism 5 software (Graphpad Software Inc., San Diego, CA, USA). […] An MTT assay was conducted as described above to assess the fitness of the cells.

The subject of data set [5] is normal cells (C8-D1A, HDF). Description: Proliferation index assay, normal cells. As to conditions: 120 h; axitinib 5 µM, etoposide 1 µM.
Setting [6] is: axitinib 50 mg/kg, etoposide 30 mg/kg, combination 25 + 15 mg/kg.

Broadly, the IC50 is the concentration needed to halve the response being measured.

Regarding `CNC(=O)c1ccccc1Sc1ccc2c(/C=C/c3ccccn3)n[nH]c2c1` [Axitinib, axitinib], the “axitinib content of cerebella (LC/MS)” value in data set [1] is reported as “present in the cerebellum”. Besides, the “viability of C8-D1A normal cells” value in the data set on C8-D1A astrocytes is “no effect on the viability”. In addition, in data set [2], the “number of endothelial cells (CD31-positive) and/or pericytes/cancer-associated fibroblasts (αSMA-positive)” value is reported as “did not impact”; the “surface of necrotic areas” value was “increased the surface of necrotic areas”; the “tumor growth rates (linear regression, growth phase)” value was “reduced”. In data set [2] (setting [6]), the “median time to reach the endpoint volume (1000 mm^3)” value was determined as 18 days and the “range of time to reach the endpoint volume (1000 mm^3)” value was in the range of 13 to 63 days. Further, the “number of CD31-positive and αSMA-positive double-stained structures (vessels covered with pericytes)” value in data set [3] (metronomic oral treatment) is on record as “decreased the number”. The “intracranial tumor growth (BLI)” value in data set [3] (oral, five times a week, axitinib 50 mg/kg, combination 25 + 15 mg/kg) was “reduced tumor growth”. For the same molecule, the “survival of mice with intracranial tumors” value in data set [3] (oral, five times a week, axitinib 50 mg/kg, etoposide 30 mg/kg, combination 25 + 15 mg/kg) is “increased survival of the animals”. The “proliferation (CPD) of HDF normal cells after removal of the drug” value in the data set on HDF is given as “able to proliferate again”. Also, the “viability of MB cells” value in the data set on MB cells is “decreased the viability of most MB cells”. This molecule also showed an IC50 in data set [4] of 1100 ± 900 nM. Also, the “proliferation of normal cells” value in data set [5] is “impaired in these conditions, although to a lower extent”.
